For data set [1], the target named is T1, G protein-coupled receptor 119 (GPR-119) (Mesocricetus auratus, UniProt A0A1U8CD06).
T1 construct: hamster-derived β-cells containing G protein-coupled receptor 119 (GPR-119), HIT-T15 cells; host or cells: HIT-T15 (hamster pancreatic β-cells)
T1 sequence (A0A1U8CD06 1-334): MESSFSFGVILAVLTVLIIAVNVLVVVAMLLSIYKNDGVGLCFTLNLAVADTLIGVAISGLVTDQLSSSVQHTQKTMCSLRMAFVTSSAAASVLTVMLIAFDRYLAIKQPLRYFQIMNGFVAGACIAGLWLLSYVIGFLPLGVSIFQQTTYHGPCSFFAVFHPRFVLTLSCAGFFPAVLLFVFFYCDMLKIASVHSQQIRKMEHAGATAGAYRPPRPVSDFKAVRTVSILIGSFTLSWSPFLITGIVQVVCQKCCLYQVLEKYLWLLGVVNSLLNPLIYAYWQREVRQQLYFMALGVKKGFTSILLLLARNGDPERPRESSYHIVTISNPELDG
The experiment in a line: cAMP activity in HIT-T15 cells (cAMP dynamic kit, FRET). To be noted: 1 hour at 37° C., six concentrations 0.0032 to 10 μM, read-out: EC50. It counts as cell-based, hamster. The method, boiled down:
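Hamster HIT-T15 cells (60,000/well) were treated next day with compound at six concentrations, 0.0032–10 μM, for 1 h at 37° C. Cells were then lysed and cAMP measured by competitive HTRF immunoassay (D2-cAMP, cryptate anti-cAMP). Activity was derived as the change in FRET signal relative to DMSO.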

For data set [2], the system named is diet-induced obesity (DIO) C57BL/6J mice. The experiment in a line: OGTT in diet-induced obesity (DIO) mice at the end of 4-week administration. The data set is classed as in vivo. To be noted: glucose 4 g/kg 30 minutes later. As for the experimental part:
To simultaneously evaluate both the weight-loss and hypoglycemic effects of the cyclohexene derivative according to the present invention, experiments were carried out, as follows.
Specifically, male C57BL/6J mice (approximately 4 weeks old) in a diet-induced obesity model were fed with a high-fat diet (Lab. Diet Co.) for approximately 12 weeks to induce high-fat diet-induced obesity (DIO). The mice undergoing the high-fat diet were randomly selected, and divided into groups (n=8) for respective administrations.
The weights of the DIO mice were measured twice a week during a period of administration of 4 weeks to record a change in the weights. At the end of the 4-week period of administration, a hypoglycemic effect was evaluated using an oral glucose tolerance test (OGTT), as follows.
Specifically, the compound (+)-(4-(4-((1-(5-ethylpyrimidin-2-yl)piperidin-4-yl)methoxy)phenyl)cyclohex-3-enyl)((R)-2-(hydroxymethyl)pyrrolidin-1-yl)methanone or (−)-(4-(4-((1-(5-ethylpyrimidin-2-yl)piperidin-4-yl)methoxy)phenyl)cyclohex-3-enyl)((R)-2-(hydroxymethyl)pyrrolidin-1-yl)methanone prepared in Example 290 or 291 was orally administered at a dose of 10 to 20 mg/kg. […] A blood glucose level was determined using an Accu-Chek Active Strip (Roche diagnostic Co.). […]

In another data set the target is T2, CYP2D6 (Homo sapiens, UniProt P10635).
T2 construct: purchased Invitrogen P2862
The experiment in a line: CYP inhibition assay (Invitrogen P2862 kit). The data set is classed as in vitro ADME. To be noted: 10 µM. An excerpt: CYP enzymes play a major role in the metabolism of drugs. Depending on the inhibition activity of the CYP enzymes, the dose of the drugs and toxicity due to the co-administration of other drugs can be predicted. Therefore, we have measured the inhibitory activity for CYP3A4, CYP2C9, CYP1A2, CYP2D6 and CYP2C19 enzymes present in the body using the compounds of the present invention. Invitrogen P2862 kit was used for CYP2D6 inhibition assay, and BD GENTEST (459100, 459300, 459400, 459500) kits were used for CYP1A2, CYP2C9, CYP2C19 and CYP3A4 inhibition assay. In case of Invitrogen kit, the test materials were diluted in distilled water into 2.5× of the final test concentration.
P450 BACULOSOMES® reagent and regeneration device (100×) provided by the Invitrogen kit were diluted in the Vivid® reaction buffer (2×) into the appropriate concentration for the type of CYP450. After mixing 80 μl of the 2.5× test material and 100 μl of the mixture of the diluted P450 BACULOSOMES® reagent in U-bottom 96-well plate, the resulting mixture was pre-incubated for 20 minutes. Vivid® CYP450 substrate and NADP+ (100×) were diluted in the Vivid® CYP450 reaction buffer (2×) into the appropriate concentration for the types of CYP450 and the substrates. After completion of the pre-incubation, 20/l of the substrate-NADP (nicotinamide adenine dinucleotide phosphate) mixture was added, and then incubated for 1 hour. After completion of the reaction, the reactants were transferred to the white plates, and fluorescence values were measured using a micro-plate reader (Excitation and absorption wavelengths of CYP2D6 were 400 nm and 502 nm, respectively).
The measured values were converted into the inhibition percent of the test materials as compared to the value of the untreated control, and the results were summarized in Table 5.

T2 sequence (P10635 whole entry): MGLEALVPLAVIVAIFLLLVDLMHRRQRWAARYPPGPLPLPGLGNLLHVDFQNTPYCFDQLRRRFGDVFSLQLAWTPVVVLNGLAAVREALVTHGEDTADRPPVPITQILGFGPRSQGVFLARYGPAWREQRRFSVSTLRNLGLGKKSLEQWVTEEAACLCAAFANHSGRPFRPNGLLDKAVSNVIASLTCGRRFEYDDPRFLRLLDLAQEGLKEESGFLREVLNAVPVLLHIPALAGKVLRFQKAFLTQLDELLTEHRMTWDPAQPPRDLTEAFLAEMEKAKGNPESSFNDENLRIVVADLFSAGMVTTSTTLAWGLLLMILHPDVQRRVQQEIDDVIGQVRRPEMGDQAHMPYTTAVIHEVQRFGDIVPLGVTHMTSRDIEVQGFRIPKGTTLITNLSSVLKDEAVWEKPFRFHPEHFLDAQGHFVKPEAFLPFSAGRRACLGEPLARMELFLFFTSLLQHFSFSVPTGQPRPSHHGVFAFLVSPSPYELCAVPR

On to `CCc1cnc(N2CCC(COc3ccc(C4=CCC(C(=O)N5CCC[C@@H]5CO)CC4)cc3)CC2)nc1` (single isomer, unassigned; (-)) [Example 291], for which, in data set [1], the EC50 stood at 32 nM. For the same compound, the “% AUC (hypoglycemic level)” value is recorded as 16.2 % AUC in data set [2] (10 mg/kg oral) and 17.6 % AUC in data set [2] (20 mg/kg oral). Besides, at CYP2D6, the “CYP inhibition (% at 10 μM) 2D6” value amounted to 2.49%.

These data come from patent US10723699B2 (Hyundai Pharm Co., Ltd., priority 2015, dated 2020).
